How the values were obtained:
SMN2 mRNA = assay: Gene panel canonical junction qPCR assay, SMN2 CJ mRNA decrease; type: cell-based, human; details: Homo sapiens, canonical junction qPCR, read-out: SMN2 IC50 (decrease in CJ mRNA levels)
Summary of the method: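 A673 or K562 cells treated with compound; canonical exon-exon junction mRNA quantified by cDNA synthesis and RT-qPCR with junction-spanning primer/probe, normalized to GAPDH, GUSB or PPIA and DMSO (2^(−ΔΔCt)). Percent response from set ΔCt assay windows fitted to 4-parameter logistic; IC50 for CJ decrease.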

MYB mRNA = assay: Splicing RT-qPCR assay, MYB canonical (CJ) and alternative (AJ) junction mRNA; type: cell-based; details: Homo sapiens, A673 or K562 cells, 24 hours; for IC50: decrease in canonical junction mRNA; for AC50: increase in alternative junction mRNA
Summary of the method: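 A673 (DMEM/10% FBS, plated 24 h before dosing) or K562 (IMDM/10% FBS) cells treated 24 h at 37 °C with 11-point 3-fold dilutions, top final 10 uM, DMSO ≤0.25%. Lysates analysed by one-step RT-qPCR for CJ and AJ isoforms, normalized to GAPDH/GUSB (K562) or PPIA (A673).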

Compound | IC50 (SMN2 mRNA) [µM] | IC50 (MYB mRNA) [µM] | AC50 (MYB mRNA) [µM]
Cc1cn2cc(NC(=O)c3ccc(N4CCNCC4)c4nncnc34)cc(F)c2n1 [Compound 345] | < 0.1 | 0.1 to 1 | 0.1 to 1
Cc1cn2cc(NC(=O)c3ccc(N4CCN[C@@H](C(C)C)C4)c4nccnc34)cc(F)c2n1 [Compound 250, N-{8-fluoro-2-methylimidazo[1,2-a]pyridin-6-yl}-8-[(3S)-3-isopropylpiperazin-1-yl]quinoxaline-5-carboxamide] | < 0.1 | 0.1 to 1 | 1 to 10
CN[C@H]1CCN(c2ccc(C(=O)Nc3cc(F)c4nc(C)cn4c3)c3nnccc23)C1 [Compound 239, (S)—N-(8-fluoro-2-methylimidazo[1,2-a]pyridin-6-yl)-5-(3-(methylamino)pyrrolidin-1-yl)cinnoline-8-carboxamide] | < 0.1 | < 0.1 | 0.1 to 1
Cn1cc2ccc(NC(=O)c3ccc(N4CCNCC4)c4ccnnc34)cc2n1 [Compound 115] | > 10 | > 10 | > 10
Cc1cn2cc(NC(=O)c3ccc(N4CCC(N)(CF)CC4)c4nccnc34)cc(F)c2n1 [Compound 356] | 0.1 to 1 | 1 to 10 | 1 to 10
COc1nc2c(N3C[C@@H](C)N[C@@H](C)C3)ccc(C(=O)Nc3cc(F)c4nc(C)cn4c3)c2nc1C [Compound 260, 8-((3R,5S)-3,5-dimethylpiperazin-1-yl)-N-(8-fluoro-2-methylimidazo[1,2-a]pyridin-6-yl)-2-methoxy-3-methylquinoxaline-5-carboxamide; 2,2,2-trifluoroacetate] | < 0.1 | 0.1 to 1 | 0.1 to 1
Cc1cn2cc(NC(=O)c3ccc(N4C[C@@H](C)N[C@@H](C)C4)c4cccnc34)cc(F)c2n1 [Compound 340] | < 0.1 | 0.1 to 1 | 0.1 to 1
Cc1cn2cc(NC(=O)c3ccc(N4CCN[C@@H](C5CC5)C4)c4nccnc34)cc(F)c2n1 [Compound 252, 8-[(3S)-3-cyclopropylpiperazin-1-yl]-N-{8-fluoro-2-methylimidazo[1,2-a]pyridin-6-yl}quinoxaline-5-carboxamide] | < 0.1 | 0.1 to 1 | 0.1 to 1
Cc1cn2cc(NC(=O)c3ccc(N4C[C@@H](C)N[C@@H](C)C4)c4nccnc34)nc(Cl)c2n1 [Compound 279] | < 0.1 | < 0.1 | 0.1 to 1
Cc1cn2cc(NC(=O)c3ccc(N4C[C@@H](C)N[C@@H](C)C4)c4nccnc34)nc2c(C)n1 [Compound 359] | < 0.1 | 0.1 to 1 | 0.1 to 1
COc1ccc2c(N3C[C@@H](C)N[C@@H](C)C3)ccc(C(=O)Nc3cc(F)c4nc(C)cn4c3)c2n1 [Compound 268, 5-[(3R,5S)-3,5-dimethylpiperazin-1-yl]-N-{8-fluoro-2-methylimidazo[1,2-a]pyridin-6-yl}-2-methoxyquinoline-8-carboxamide] | < 0.1 | 0.1 to 1 | < 0.1
Cc1ccc2cc(NC(=O)c3ccc(N4C[C@@H](C)N[C@@H](C)C4)c4nccnc34)cc(F)c2n1 [Compound 353] | 0.1 to 1 | > 10 | > 10
Cn1cc2c(F)cc(NC(=O)c3ccc(N4CCNCC4)c4ccnnc34)cc2n1 [Compound 116] | > 10 | > 10 | > 10
Cc1cn2cc(NC(=O)c3ccc(N4CCN(C)C5(CC5)C4)c4nccnc34)cc(F)c2n1 [Compound 364] | < 0.1 | 0.1 to 1 | 0.1 to 1
Cc1cn2cc(NC(=O)c3ccc(N4CCN[C@H](C5CC5)C4)c4nccnc34)cc(F)c2n1 [Compound 253, 8-[(3R)-3-cyclopropylpiperazin-1-yl]-N-{8-fluoro-2-methylimidazo[1,2-a]pyridin-6-yl}quinoxaline-5-carboxamide] | < 0.1 | < 0.1 | < 0.1
Cc1cn2cc(NC(=O)c3ccc(N4CCN[C@H](CF)C4)c4nccnc34)cc(F)c2n1 [Compound 366] | < 0.1 | 0.1 to 1 | 0.1 to 1
Cc1cn2cc(NC(=O)c3ccc(N4C[C@H](C)N[C@@H](C)C4)c4nccnc34)cc(F)c2n1 [Compound 313] | < 0.1 | < 0.1 | < 0.1
Cc1cn2cc(NC(=O)c3ccc(N4CCC(NC5CC5)CC4)c4ccnnc34)cc(F)c2n1 [Compound 259, 5-[4-(cyclopropylamino)piperidin-1-yl]-N-{8-fluoro-2-methylimidazo[1,2-a]pyridin-6-yl} cinnoline-8-carboxamide] | < 0.1 | < 0.1 | < 0.1
COc1nc(NC(=O)c2ccc(N3C[C@@H](C)N[C@@H](C)C3)c3nccnc23)cc2oc(C)nc12 [Compound 298] | < 0.1 | 0.1 to 1 | 0.1 to 1
C[C@@H]1CN(c2ccc(C(=O)Nc3cc(F)c4cnccc4c3)c3nccnc23)C[C@H](C)N1 [Compound 343] | 0.1 to 1 | 1 to 10 | 1 to 10

Compound | IC50 (SMN2 mRNA) [µM] | IC50 (MYB mRNA) [µM] | AC50 (MYB mRNA) [µM]
Cc1cn2cc(NC(=O)c3c(F)cc(N4C[C@@H](C)N[C@@H](C)C4)c4nccnc34)cc(F)c2n1 [Compound 261, cis-8-[(3R,5S)-3,5-dimethylpiperazin-1-yl]-6-fluoro-N-{8-fluoro-2-methylimidazo[1,2-a]pyridin-6-yl}quinoxaline-5-carboxamide] | < 0.1 | < 0.1 | < 0.1
Cc1cn2cc(NC(=O)c3ccc([C@H]4CCNC4)c4nccnc34)cc(F)c2n1 [Compound 246] | < 0.1 | 0.1 to 1 | 0.1 to 1
Cc1cn2cc(NC(=O)c3ccc(N4CCNC(C)(CO)C4)c4nccnc34)cc(F)c2n1 (stereo not drawn) [Compound 368] | < 0.1 | < 0.1 | < 0.1
Cc1cn2cc(NC(=O)c3ccc(NC4CCNC4)c4nccnc34)cc(F)c2n1 (stereo not drawn) [Compound 316] | < 0.1 | 0.1 to 1 | 1 to 10
COc1ncc2c(N3C[C@@H](C)N[C@@H](C)C3)ccc(C(=O)Nc3cc(F)c4nc(C)cn4c3)c2n1 [Compound 300] | < 0.1 | < 0.1 | < 0.1
Cc1cn2cc(NC(=O)c3ccc(N4CCN[C@H](CO)C4)c4nccnc34)cc(F)c2n1 [Compound 362] | < 0.1 | 0.1 to 1 | 0.1 to 1
CNC1CCN(c2ccc(C(=O)Nc3cc(F)c4nc(C)cn4c3)c3nc(OCCOC)ccc23)C1 (stereo not drawn) [Compound 234] | < 0.1 | 0.1 to 1 | 0.1 to 1
Cc1c(O)c(NC(=O)c2ccc(N3C[C@@H](C)N[C@@H](C)C3)c3nccnc23)cc2cn(C)nc12 [Compound 310] | < 0.1 | 0.1 to 1 | 0.1 to 1
Cc1cn2cc(NC(=O)c3ccc(N4CCN5CCOC[C@H]5C4)c4nccnc34)cc(F)c2n1 [Compound 256, (R)—N-(8-fluoro-2-methylimidazo[1,2-a]pyridin-6-yl)-8-(hexahydropyrazino[2,1-c][1,4]oxazin-8(1H)-yl)quinoxaline-5-carboxamide] | 1 to 10 | 1 to 10 | 1 to 10
Cc1cn2cc(NC(=O)c3ccc(C4=CCNCC4)c4nccnc34)cc(F)c2n1 [Compound 240, N-{8-fluoro-2-methylimidazo[1,2-a]pyridin-6-yl}-8-(1,2,3,6-tetrahydropyridin-4-yl)quinoxaline-5-carboxamide] | < 0.1 | < 0.1 | 0.1 to 1
Cc1cn2cc(NC(=O)c3ccc(N4C[C@@H](C)N[C@@H](C)C4)c4ncc(O)nc34)cc(F)c2n1 [Compound 275] | > 10 | > 10 | > 10
Cc1cn2cc(NC(=O)c3ccc(N4CCN[C@@H](CF)C4)c4nccnc34)cc(F)c2n1 [Compound 367] | 0.1 to 1 | 1 to 10 | 1 to 10
Cc1cn2cc(NC(=O)c3ccc(N4C[C@@H](C5CC5)N[C@@H](C)C4)c4nccnc34)cc(F)c2n1 [Compound 267, 8-((3R,5S)-3-cyclopropyl-5-methylpiperazin-1-yl)-N-(8-fluoro-2-methylimidazo[1,2-a]pyridin-6-yl)quinoxaline-5-carboxamide] | < 0.1 | 0.1 to 1 | 0.1 to 1
Cc1cn2cc(NC(=O)c3ccc(N4C[C@@H](C)N[C@@H](C)C4)c4nccnc34)nc(C)c2n1 [Compound 288] | < 0.1 | < 0.1 | < 0.1
Cc1cn2cc(NC(=O)c3ccc(N4CCNC5(CC5)C4)c4cccnc34)cc(F)c2n1 [Compound 341] | < 0.1 | 0.1 to 1 | 0.1 to 1
Cc1cn2cc(NC(=O)c3ccc(N4C[C@@H](C)N[C@@H](C)C4)c4cncnc34)cc(F)c2n1 [Compound 302] | < 0.1 | 0.1 to 1 | 0.1 to 1
Cc1cn2cc(NC(=O)c3ccc(N4C[C@@H](C)N[C@@H](C)C4)c4nccnc34)cc(C#N)c2n1 [Compound 294] | < 0.1 | 0.1 to 1 | 0.1 to 1
Cc1cn2cc(NC(=O)c3ccc(N4C[C@@H](C)N(O)[C@@H](C)C4)c4nccnc34)cc(F)c2n1 [Compound 355] | < 0.1 | 0.1 to 1 | 0.1 to 1
Cc1cn2nc(NC(=O)c3ccc(C4CCNCC4)c4ccnnc34)cc(C)c2n1 [Compound 113] | 0.1 to 1 | 1 to 10 | 0.1 to 1
